Test results taken from patent US20150258139A1, “METHODS FOR TREATMENT OF CANCER USING LIPOPLATIN” (REGULON, INC., priority 2012, published 2015).
Values joined by “and” are separate entries in the source; they are usually repeats but may differ in a detail not shown here. Equal values may be shown once. Read-outs that look alike come from different tables or passages of the source.

Tests used:
F98 glioma tumor [1] = assay type: in vivo; conditions: drug alone
F98 glioma tumor [2] = test: Mean survival time of F98 glioma bearing Fischer rats, platinum drugs combined with Gamma Knife irradiation; assay type: in vivo
F98 glioma tumor [3] = tested on: F98 glioma tumor
[4] = tested on: Nonmetastatic Castrate-Resistant Prostate Cancer; conditions: monotherapy (Ogita et al); cited from earlier work
[5] = tested on: metastatic colorectal cancer; conditions: cited from earlier work
pancreatic cancer = conditions: gemcitabine alone; cited from earlier work
[6] = IA + BBBD, 24 h after administration, ± SD
[7] = IA + BBBD, 24 h after administration, ± SD, listed as carboplatin
[8] = IA, 24 h after administration, ± SD
[9] = IA, 24 h after administration, ± SD, listed as carboplatin
[10] = IV, 24 h after administration, ± SD

N.N.O=C([O-])C1(C(=O)[O-])CCC1.[Pt+2] [Carboplatin]
mean survival time (F98 glioma tumor [1]; IA + opening BBB): 33.7 ± 2.0 days
mean survival time (F98 glioma tumor [1]; IA, sham group 22.5±0.6 days): 31.0 ± 3.6 days
mean survival time (F98 glioma tumor [1]; IV, sham group 22.6±1.2 days): did not significantly increase
mean survival time (F98 glioma tumor [2]; IA + opening of BBB + radiation 15 Gy, sham group+IR 34.5±2.2 days): 38.0 ± 6.4 days
increase of mean survival time compared to the sham IR group (F98 glioma tumor [2]; IA + radiation 15 Gy): 10.7 days
mean survival time (F98 glioma tumor [2]; IA + radiation 15 Gy, sham group+IR 34.0±6.1 days): 44.7 ± 6.1 days
increase of accumulation in cytoplasm of tumor cells by opening of the BBB (F98 glioma tumor [3]; IA + BBBD vs IA): 4.7 fold
increase of accumulation in nucleus of tumor cells by opening of the BBB (F98 glioma tumor [3]; IA + BBBD vs IA): 18 fold
Platinum in brain tumor (F98 glioma tumor [3]; [6]): 987 ± 621 ng of platin/g tissue
Platinum in cytoplasm of tumor cells (F98 glioma tumor [3]; [6]): 398 ± 191 ng of platin/g tissue
Platinum in healthy contra lateral brain (F98 glioma tumor [3]; [6]): 242 ± 59 ng of platin/g tissue
Platinum in nucleus of tumor cells (F98 glioma tumor [3]; [6]): 160 ± 85 ng of platin/g tissue
Platinum in cytoplasm of tumor cells (F98 glioma tumor [3]; [7]): 398±191 ng of platin/g tissue
Platinum in nucleus of tumor cells (F98 glioma tumor [3]; [7]): 160±85 ng of platin/g tissue
effect of the IA route on tumor uptake and specificity (F98 glioma tumor [3]; IA vs IV, tumor vs contra lateral brain): improved both the tumor uptake and specificity
Platinum in brain tumor (F98 glioma tumor [3]; [8]): 469 ± 241 ng of platin/g tissue
Platinum in cytoplasm of tumor cells (F98 glioma tumor [3]; [8]): 84 ± 61 ng of platin/g tissue
Platinum in healthy contra lateral brain (F98 glioma tumor [3]; [8]): 70 ± 48 ng of platin/g tissue
Platinum in nucleus of tumor cells (F98 glioma tumor [3]; [8]): 9 ± 7 ng of platin/g tissue
Platinum in cytoplasm of tumor cells (F98 glioma tumor [3]; [9]): 84±61 ng of platin/g tissue
Platinum in nucleus of tumor cells (F98 glioma tumor [3]; [9]): 9±7 ng of platin/g tissue
uptake in the nucleus of cancer cells (F98 glioma tumor [3]; IV route): ~4 ng platinum/g tissue
Platinum in brain tumor (F98 glioma tumor [3]; [10]): 145 ± 27 ng of platin/g tissue
Platinum in cytoplasm of tumor cells (F98 glioma tumor [3]; [10]): 13 ± 4 ng of platin/g tissue
Platinum in healthy contra lateral brain (F98 glioma tumor [3]; [10]): 27 ± 2 ng of platin/g tissue
Platinum in nucleus of tumor cells (F98 glioma tumor [3]; [10]): 0.5 ± 0.8 ng of platin/g tissue

Avastin®: humanized monoclonal antibody that binds to and inhibits human vascular endothelial growth factor (VEGF)
efficacy [4]: marginal efficacy

O=C1[O][Pt]2([NH][C@@H]3CCCC[C@H]3[NH]2)[O]C1=O [Oxaliplatin]
mean survival time (F98 glioma tumor [1]; IA, sham group 22.5±0.6 days): 22.0 ± 4.7 days
mean survival time (F98 glioma tumor [1]; IV, sham group 22.6±1.2 days): did not significantly increase
uptake in the nucleus of cancer cells (F98 glioma tumor [3]; IV route): 78±8 ng platinum/g tissue
Platinum in cytoplasm of tumor cells (F98 glioma tumor [3]; [10]): 292 ± 128 ng of platin/g tissue
Platinum in nucleus of tumor cells (F98 glioma tumor [3]; [10]): 78 ± 8 ng of platin/g tissue
objective responses, % of patients ([5]; 2 small trials of first-line monotherapy (Wiseman et al)): 20% and 24%
response rate ([5]; first line monotherapy, metastatic colorectal cancer patients): 24%
objective responses, % of patients ([5]; monotherapy as second-line option (Wiseman et al)): about 10%
overall response rate ([5]; monotherapy, second line, colorectal cancer, Japanese study (Boku et al)): 9%

Nc1ccn([C@@H]2O[C@H](CO)[C@@H](O)C2(F)F)c(=O)n1 [gemcitabine]
one-year survival (pancreatic cancer): 17%

N.N.[Cl][Pt][Cl] [Cisplatin]
mean survival time (F98 glioma tumor [1]; IA, sham group 22.5±0.6 days): 13.3 ± 0.1 days
mean survival time (F98 glioma tumor [1]; IV, sham group 22.6±1.2 days): 18.1 ± 0.9 days
Platinum in cytoplasm of tumor cells (F98 glioma tumor [3]; rat, in vivo, iv): 251 ± 48 ng of platin/g tissue
Platinum in nucleus of tumor cells (F98 glioma tumor [3]; rat, in vivo, iv): 67 ± 14 ng of platin/g tissue
uptake in the nucleus of cancer cells (F98 glioma tumor [3]; rat, in vivo, iv): 67±14 ng platinum/g tissue
